From patent US20090203773A1, “Compounds for the Treatment of Non-Autoimmune Type 2 Diabetes Mellitus and/or Syndrome X” (priority 2005, published 2009)

Key:
[1] = system: C3H10T1/2 cells; assay: Differentiation of adipocytes (oil Red O staining); type: cell-based; conditions: for Adipocyte differentiation, oil Red O, Mean OD ± SEM: 10-day treatment, absorbance at 540 nm; for Differentiation of the cells into adipocytes, result in words: co-treatment with insulin, compared with insulin alone
Procedure: C3H10T1/2 cells were grown to confluence as described in Example 1, then treated for 10 days with insulin alone (negative control) or with a mixture of insulin and the compound of the formula I-13 at different concentrations (see Table 2), with re-feeding with fresh medium and compounds every 48-h. After 10-days of treatment, the cells were stained with oil Red O as follows: cells were washed 2× in PBS and fixed in 10% formalin at room temperature for 1 h. After removal of formalin, 200 μl of oil Red O staining solution (3:2 mixture of 0.5% w/v oil Red O stock solution and water) was applied to each well. The cells were incubated for 20 min at room temperature, washed twice in 2×PBS and incubated for 10 min with 300 μl of isopropanol/well for oil Red O extraction. Quantification of oil Red O was determined by measuring absorbance at 540 nm (mean OD). […] C3H10T1/2 cells were grown and treated as described in Example 4 with the exception that the compound of the formula I-14 was used instead of the compound of the formula I-13. The measurement of adipocyte differentiation using the oil Red O assay was performed as described in Example 4. […] C3H10T1/2 cells were grown and treated as described in Example 4 with the exception that the compound of the formula I-15 was used instead of the compound of the formula I-13. The measurement of adipocyte differentiation using the oil Red O assay was performed as described in Example 4.

[2] = system: C3H10T1/2 cells; assay: Glucose uptake of adipocytes (radioactive 2-deoxyglucose, basal, without insulin); type: cell-based; conditions: 48-h treatment; for Basal glucose uptake (% of control ± SEM): absence of insulin, DMSO control = 100%; for Basal glucose uptake, result in words: different concentrations
Procedure: C3H10T1/2 cells (ATCC CCL-226) were grown for 5 days to confluence in DMEM supplemented with 10% FBS medium and induced with a mixture of insulin, dexamethasone and 3-isobutyl-1-methylxanthine to differentiate into adipocytes. Nine days after the beginning of induction, cells were treated for 48-h with the compound of the formula I-13 at different concentrations as shown in Table 1. Glucose uptake was determined using radioactive 2-deoxyglucose (10 μM 2-DG in HBS+0.5 μCi/ml of 3[H]-2-DG), measuring glucose uptake in the absence of insulin. Basal glucose uptake was increased by 48-h treatment with the compound of the formula I-13 in a dose-dependent manner (Table 1). Growing, induction and treatment of C3H10T1/2 cells were exactly as described in Example 1, with the exception that the compound of the formula I-15 at different concentrations was used instead of the compound of the formula I-13. […] Control: C3H10T1/2 cells treated for 48 h with DMSO at the same concentration as compound-treated cells and set at 100%

[3] = system: C57BLKS/J db/db mice; assay: Glucose tolerance / blood glucose in a 14-day db/db mouse study (OGTT); type: in vivo
Procedure: The efficacy of the compound of the formula I-13 on glucose tolerance was tested in a 14-day study in C57BLKS/J db/db mice (n=10/group), a model of late type 2 diabetes mellitus with severe hyperglycemia.
Male db/db mice were obtained from Jackson Laboratory (Bar Harbor, Me., USA). Adult mice aged 8 weeks were used in the experiment. Mice were housed individually in plastic cages with bedding and allowed free access to standard rodent food and tap water. The animal rooms were controlled for temperature (24° C.), humidity (55%), and light (12-h light-dark cycle). The animals were randomized in two groups and the compound of the formula I-13 was administered orally to one of the groups for 14 days at a dose of 200 mg/kg BW/day. After 14 days of treatment the concentration of glucose was determined in blood from fed animals, i.e., animals which were not restricted from food. After a period of 10 days of treatment an oral glucose tolerance test (OGTT) was performed. For the OGTT mice were fasted overnight and then a 1-g glucose/kg BW solution was orally administered. Blood samples were taken before and 15, 30, 45, 60, 90, 120, 150, 180 min after the glucose challenge for determination of blood glucose levels and then the area under the curve (AUC) was determined. Blood glucose was measured by a glucose analyzer (Glucotrend Premium, Roche Diagnostics, Rotkreuz, Switzerland). The glucose and the free fatty acid (FFA) levels of fed animals (see above) were lowered after 14 days of treatment with the compound of the formula I-13. After 10 days of treatment with the compound of the formula I-13 the glucose levels of fasted animals, i.e., animals with an overnight fasting (see above) were decreased as compared to the untreated control group.

[4] = Insulin 1 × 10^−7 M + compound 1 × 10^−5 M
[5] = 200 mg/kg BW/day orally, after 14 days, fed animals

Compound | Basal glucose uptake (% of control ± SEM) ([2]; 1 × 10^−5 M) | Basal glucose uptake (% of control ± SEM) ([2]; 1 × 10^−6 M) | Basal glucose uptake, result in words [2] | Adipocyte differentiation, oil Red O, Mean OD ± SEM [1, 4] | Differentiation of the cells into adipocytes, result in words [1] | Basal glucose uptake (% of control ± SEM) ([2]; 5 × 10^−5 M) | other results
Insulin | – | – | – | – | – | – | Adipocyte differentiation, oil Red O, Mean OD ± SEM ([1]; Insulin 1 × 10^−7 M alone (negative control)): 0.28 ± 0.03
COc1ccc(C(=O)/C=C/c2c(CCN(C)C(C)=O)cc3c(c2OC)OCO3)cc1 [I-13] | 94.58 ± 0.95 % of control | 97.6 ± 22.9 % of control | increased | 0.69 ± 0.019 | higher differentiation | – | Basal glucose uptake (% of control ± SEM) ([2]; 2.4 × 10^−5 M): 128.6 ± 0.89 % of control; Basal glucose uptake (% of control ± SEM) ([2]; 5 × 10^−4 M): 194.058 ± 0.05 % of control; Glucose AUC ([3]; 200 mg/kg BW/day orally, OGTT (1 g glucose/kg BW) on day 10, 0-180 min): 54295; Blood Glucose Fasted ([3]; 200 mg/kg BW/day orally, after 10 days, overnight fasting): 135 mg/dL; Blood Glucose Fed [3, 5]: 771 mg/dL; FFA [3, 5]: 12.38 mg/dL; Glucose AUC of an OGTT, result in words ([3]; 200 mg/kg BW/day, OGTT 1 g glucose/kg body weight on day 10): significantly reduced; Glucose levels of fasted animals, result in words ([3]; 200 mg/kg BW/day, after 10 days, compared to untreated control group): decreased; Glucose and free fatty acid (FFA) levels of fed animals, result in words ([3]; 200 mg/kg BW/day, after 14 days): lowered; Blood glucose levels during the OGTT, result in words ([3]; 200 mg/kg BW/day, day 10, compared with control group): lower at all time points
COc1ccc(C(=O)C=Cc2cccc(OC(=O)C=Cc3ccccc3)c2)cc1 [I-14] | – | – | – | 0.45 ± 0.037 | higher differentiation | – | –
COc1ccc(/C=C/C(=O)c2ccc(OC(=O)c3ccccc3)cc2)cc1OC [I-15] | 133.28 ± 23.4 % of control | 105.37 ± 2.21 % of control | increase | 0.53 ± 0.025 | higher differentiation | 116.17 ± 15.96 % of control | Basal glucose uptake (% of control ± SEM) ([2]; 2 × 10^−4 M): 142.84 ± 18.05 % of control; Adipocyte differentiation, oil Red O, Mean OD ± SEM ([1]; Insulin 1 × 10^−7 M + compound 2 × 10^−4 M): 0.34 ± 0.087; Adipocyte differentiation, oil Red O, Mean OD ± SEM ([1]; Insulin 1 × 10^−7 M + compound 5 × 10^−5 M): 0.53 ± 0.017
CC1(COc2ccc(CC3SC(=O)NC3=O)cc2)CCCCC1 (stereo not shown) [Ciglitazone, reference compound] | – | – | – | – | – | 496.178 ± 61.86 % of control | –
